Some targets named below: RmlA (Mycobacterium tuberculosis, UniProt P9WH13); PknH (Mycobacterium tuberculosis, UniProt P9WI71); PknD (Mycobacterium tuberculosis, UniProt P9WI79).

Each structure is given as a SMILES string.

Chain of RmlA (P9WH13 whole entry): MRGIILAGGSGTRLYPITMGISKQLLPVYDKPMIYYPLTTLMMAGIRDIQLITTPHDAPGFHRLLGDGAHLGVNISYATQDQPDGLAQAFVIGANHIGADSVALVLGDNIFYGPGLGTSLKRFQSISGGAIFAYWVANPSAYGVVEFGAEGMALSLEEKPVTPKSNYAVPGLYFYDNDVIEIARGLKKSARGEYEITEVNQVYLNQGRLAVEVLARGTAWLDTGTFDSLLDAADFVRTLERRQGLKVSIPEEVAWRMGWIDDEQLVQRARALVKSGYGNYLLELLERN
Chain of PknD (P9WI79 2-664): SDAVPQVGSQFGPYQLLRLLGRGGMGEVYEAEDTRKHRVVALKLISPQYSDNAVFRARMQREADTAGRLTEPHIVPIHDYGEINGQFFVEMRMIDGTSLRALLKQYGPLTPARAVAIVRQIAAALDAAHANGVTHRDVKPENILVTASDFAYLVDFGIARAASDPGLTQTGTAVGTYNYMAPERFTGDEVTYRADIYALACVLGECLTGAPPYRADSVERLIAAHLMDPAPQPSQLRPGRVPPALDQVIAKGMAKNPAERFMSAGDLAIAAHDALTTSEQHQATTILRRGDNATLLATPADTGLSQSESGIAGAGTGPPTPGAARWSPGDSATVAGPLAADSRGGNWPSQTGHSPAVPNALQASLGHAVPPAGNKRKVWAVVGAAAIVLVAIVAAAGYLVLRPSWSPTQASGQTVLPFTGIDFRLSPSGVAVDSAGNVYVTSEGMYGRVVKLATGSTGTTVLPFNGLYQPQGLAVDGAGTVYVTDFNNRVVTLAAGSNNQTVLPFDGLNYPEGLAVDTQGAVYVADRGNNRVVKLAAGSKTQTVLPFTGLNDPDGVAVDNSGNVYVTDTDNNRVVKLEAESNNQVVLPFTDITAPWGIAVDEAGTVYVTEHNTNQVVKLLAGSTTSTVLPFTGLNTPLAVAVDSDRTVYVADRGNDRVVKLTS
Chain of PknH (P9WI71 whole entry): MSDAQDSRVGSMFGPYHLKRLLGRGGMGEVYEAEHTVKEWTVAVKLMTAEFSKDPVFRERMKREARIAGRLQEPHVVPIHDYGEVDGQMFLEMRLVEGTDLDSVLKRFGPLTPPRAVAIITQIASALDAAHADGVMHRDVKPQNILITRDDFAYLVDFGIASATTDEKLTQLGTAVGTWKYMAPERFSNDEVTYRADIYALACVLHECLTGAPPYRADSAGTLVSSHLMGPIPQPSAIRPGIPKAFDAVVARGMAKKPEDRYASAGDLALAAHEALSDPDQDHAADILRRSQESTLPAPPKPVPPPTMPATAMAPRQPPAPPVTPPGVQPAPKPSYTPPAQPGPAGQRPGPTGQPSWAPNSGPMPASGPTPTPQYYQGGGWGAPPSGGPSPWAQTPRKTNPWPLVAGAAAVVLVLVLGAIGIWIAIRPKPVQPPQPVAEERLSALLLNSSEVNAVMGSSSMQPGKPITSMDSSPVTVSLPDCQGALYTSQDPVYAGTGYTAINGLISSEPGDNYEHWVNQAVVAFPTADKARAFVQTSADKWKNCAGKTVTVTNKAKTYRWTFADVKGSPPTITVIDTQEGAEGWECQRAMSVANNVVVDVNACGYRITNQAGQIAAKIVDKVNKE

As for `O=P(O)(O)O[C@H]1O[C@H](CO)[C@@H](O)[C@H](O)[C@H]1O` [D-Glc-1-P], the “malachite green phosphate assay coupled with pyrophosphatase” value at RmlA is “ability of RmlA to convert D-Glc-1-P and dTTP to D-Glc-dTDP and PPi”.

For `Nc1ncnc2c1ncn2[C@@H]1O[C@H](COP(=O)(O)OP(=O)(O)OP(=O)(O)O)[C@@H](O)[C@H]1O` [[γ-^32P]ATP], the autophosphorylation assay entry on PknH is “three kinases, i.e., PknB, PknD, and PknH, demonstrated high kinase activities”; on PknD it was “three kinases, i.e., PknB, PknD, and PknH, demonstrated high kinase activities”.

As for `Cc1cn([C@H]2C[C@H](O)[C@@H](COP(=O)(O)OP(=O)(O)OP(=O)(O)O)O2)c(=O)[nH]c1=O` [dTTP], the “malachite green phosphate assay coupled with pyrophosphatase” value on RmlA is “ability of RmlA to convert D-Glc-1-P and dTTP to D-Glc-dTDP and PPi”.
